From ChEMBL document CHEMBL1157323, “Chloriolide, a 12-membered macrolide from Chloridium virescens var. chlamydosporum (NRRL 37636)” (J Nat Prod, 2006)
Calls of active or inactive are those of the source.

Tests used:
Format in all cases: functional, organism-based
Escherichia coli = experiment: Antibacterial activity against Escherichia coli ATCC 25922
Fusarium verticillioides = experiment: Antifungal activity against Fusarium verticillioides NRRL 25457 at 200 ug/disk by standard disk assay
Staphylococcus aureus = experiment: Antibacterial activity against Staphylococcus aureus ATCC 29213
Bacillus subtilis = experiment: Antibacterial activity against Bacillus subtilis ATCC 6051
Aspergillus flavus = experiment: Antifungal activity against Aspergillus flavus NRRL 6541 at 200 ug/disk by standard disk assay

Measured: Activity

C[C@H]1CCC[C@@H](O)/C=C\[C@H](O)/C=C/C(=O)O1
inactive: all assays above
